Entries after “also recorded” stand apart in the source; their conditions may differ. Where two headings read alike, the source gives them in different places.
How the values were obtained:
MK-801 site of NMDAR = MK-801 site of NMDAR (Rattus norvegicus, UniProt P35439); settings: read-out: NMDAR Ki ± SEM, from Ebert et al. 1997; cited from earlier work
[1] = Oral bioavailability in mice, Method A; format: in vivo; settings: CD-1 mice; for F: 10 mg/kg; for half-life / Cmax / AUC(0-inf): male, mouse
Experimental: Animals. Male CD-1 mice were used in these studies Animals were randomly assigned to treatment groups and were fasted for 4 h before dosing.
Drugs. Test compounds were dissolved in normal saline (ketamine) or de-ionized water (other compounds) and administered intravenously (iv) or orally (po) at a dose of 10 mg/kg (calculated based on freebase) and at a volume of 5 mL/kg body weight. Compounds were tested as the racemates (indicated by “rac” nomenclature) or pure enantiomers (indicated by “R” or “S” nomenclature).
Sample Collection and Bioanalysis. Blood samples were collected under 2,2,2-tribromoethanol anesthesia (150 mg/kg, ip) from the orbital sinus at 0.083, 0.25, 0.5, 1, 2, 4, 8 and 24 h (4 animals per time point) into microcontainers containing K2EDTA Immediately after collection of blood, mice were euthanized by cervical dislocation and brain samples were collected at the same time points. All samples were immediately processed, flash-frozen, and stored at −70° C. until subsequent analysis. Plasma samples were separated by centrifugation of whole blood and aliquots (50 μL) were mixed with 200 μL of internal standard solution (400 ng/mL in 1:1 v/v CH3CN:MeOH). After mixing by pipetting and centrifuging for 4 min at 6000 rpm, 0.5 μL of each supernatant was analyzed for drug using a fit-for-purpose liquid chromatography-tandem mass spectrometry (LC-MS/MS) method, with authentic samples of each analyte used for calibration and identification. Brain samples (weight 100 mg±1 mg) were dispersed in 500 μL, of internal standard solution (400 ng/mL in 4:1 v/v MeOH:water) using zirconium oxide beads (115 mg±5 mg) in The Bullet Blender® homogenizer for 30 s at speed 8. After homogenization, the samples were centrifuged for 4 min at 14,000 rpm and 0.5 μL of each supernatant was analyzed for drug using a fit-for-purpose LC-MS/MS method, with authentic samples of each analyte used for calibration and identification.
Data Analysis. The drug concentrations of samples below the lower limit of quantitation (LLOQ) were designated as zero. Pharmacokinetic data analysis was performed using noncompartmental, bolus injection or extravascular input analysis models in WinNonlin 5.2 (PharSight). Data points below LLOQ were presented as missing to improve validity of t112 calculations.

mice (forced swim test) = assay: Forced swim test in mice, 30-minute pre-treatment; format: in vivo, Swiss Webster mice; settings: s.c., 30 minutes before test, relative to vehicle
Experimental: Animals. Male Swiss Webster mice, aged 4-5 weeks (body weight 25-30 g, Envigo) were used in the experiments Animals were housed in groups of 4-5 under controlled temperatures and 12-hour light/dark cycles, with ad libitum food (Teklad 7001 rodent diet) and water. These studies were carried out in strict accordance with the recommendations in the Guide for the Care and Use of Laboratory Animals of the National Institutes of Health. All efforts were made to minimize suffering.
Drugs and Drug Administration. Imipramine hydrochloride was administered intraperitoneally (i.p.) at a dose of 30 mg/kg. Other compounds were tested as the racemates (indicated by “rac” nomenclature) and were administered subcutaneously (s.c.) as the hydrochloride salts. Normal saline was used as the vehicle and all compounds were administered at a volume of 10 mL/kg, 30 minutes before behavioral testing.
Forced Swim Test (FST). Group size was n=10 per treatment Animals were acclimated to the testing room 30 minutes prior to behavioral testing. Mice were placed individually in a cylinder of water measuring 5 inches wide by 10 inches tall and maintained at 24-25° C. The activity of each mouse was recorded for 6 minutes using Noldus Ethovision tracking software, with periods of inactivity being automatically quantified.
Statistical Analysis. The data points shown are the mean±standard error of the mean (SEM). Analysis was performed using GraphPad Prism 6. Indicated statistical comparisons represent the results of unpaired, two-tailed t tests relative to vehicle (not corrected for multiple comparisons).

[2] = HLM stability (High Activity); format: in vitro ADME; settings: both sexes, human, liver microsomes, pH 7.4, Condition 2 (High Activity), 1.0 mg protein/mL
Method in brief: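 Pooled male and female human liver microsomes, 1.0 mg protein/mL, in 100 mM PBS pH 7.4 with NADPH-regenerating system; compound 1 μM at 37° C, five time points over 60 min. Parent remaining by LC-MS/MS; kel, t1/2 and Clint from linear regression of ln(AUC) versus time.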

[3] = HLM stability (Low Activity); format: in vitro ADME; settings: both sexes, human, liver microsomes, pH 7.4, Condition 1 (Low Activity), 0.42 mg protein/mL
Experimental: For some of the compounds, stability was tested under two microsomal incubation conditions, one with normal enzymatic activity (low activity) and one with higher enzymatic loading, longer incubation time, and lower compound concentration (high activity) intended to increase metabolic lability.
HLM Stability (Low Activity). Pooled HLM from adult male and female donors (XenoTech H0630) were used. Microsomal incubations were carried out in 96-well plates in 5 aliquots of 40 μL, each (one for each time point). Liver microsomal incubation medium consisted of PBS (100 mM, pH 7.4), MgCl2 (3.3 mM), NADPH (3 mM), glucose-6-phosphate (5.3 mM), and glucose-6-phosphate dehydrogenase (0.67 units/mL), with 0.42 mg of liver microsomal protein per mL. Control incubations were performed by replacing the NADPH-cofactor system with PBS. Test compounds (2 μM, final solvent concentration 1.6%) were incubated with microsomes at 37° C., shaking at 100 rpm. Incubations were performed in duplicate. Five time points over 40 minutes were analyzed. The reactions were stopped by adding 12 volumes of 90% acetonitrile-water to incubation aliquots, followed by protein sedimentation by centrifugation at 5500 rpm for 3 minutes. Supernatants were analyzed for parent compound remaining using a fit-for-purpose liquid chromatography-tandem mass spectrometry (LC-MS/MS) method, with authentic samples of each analyte used for identity confirmation.
Data Analysis. The elimination constant (kel), half-life (t1/2) and intrinsic clearance (Clint) were determined in a plot of […] versus time, using linear regression analysis.

[4] = molecular target: MK-801 binding site of the N-methyl-D-aspartate receptor (NMDAR); assay: NMDAR radioligand binding with [3H]MK-801, Method A; parameters: species or system Wistar rat; settings: MK-801 site, Method A, Wistar rat brain (minus cerebellum), 5.0 nM [3H]MK-801; read-out: NMDAR Ki ± SEM
Experimental: Radioligand Binding—Method A. Affinity of the test compounds for NMDAR was determined in radioligand binding experiments with [^3H]MK-801 by Eurofins Panlabs, Inc., using methods adapted from the literature (Javitt et al. 1987; Reynolds et al. 1989) and under the conditions described in Table 12.

CSDS-susceptible mice = assay: Behavioral tests after chronic social defeat stress (CSDS); format: in vivo, C57BL/6 mice; settings: 10 mg/kg i.p., single dose
[5] = calculated based on brain exposure
[6] = brain, 10 mg/kg iv, read-out: t1/2 (iv)
[7] = brain, 10 mg/kg po, read-out: t1/2 (po)
[8] = plasma, 10 mg/kg iv, read-out: AUC0-inf (iv) (converted)
[9] = plasma, 10 mg/kg iv, read-out: t1/2 (iv)
[10] = plasma, 10 mg/kg po, read-out: AUC0-inf (po) (converted)
[11] = plasma, 10 mg/kg po, read-out: t1/2 (po)
[12] = plasma, absolute oral bioavailability

SMILES | Ki (MK-801 site of NMDAR) | AUC0-inf (iv) ([1]; brain, 10 mg/kg iv) | AUC0-inf (po) ([1]; brain, 10 mg/kg po) | F [1, 5] | half-life [1, 6] | Cmax ([1]; brain, 10 mg/kg po) | half-life [1, 7] | AUC(0-inf) [1, 8] | half-life [1, 9] | Cmax ([1]; plasma, 10 mg/kg po) | AUC(0-inf) [1, 10] | half-life [1, 11] | F [1, 12] | immobility time in FST (mice (forced swim test)) | half-life at 1 μM [2] | microsomal CLint at 1 μM [2] | half-life at 2 μM [3] | microsomal CLint at 2 μM [3] | Ki [4] | antidepressant-like activity in behavioral tests after CSDS (TST, FST, SPT) (CSDS-susceptible mice)
CN[C@@]1(c2ccccc2Cl)CCCCC1=O (single isomer, unassigned) [(R)-ketamine, ketamine] | 1.4 ± 0.1 µM | – | – | – | – | – | – | – | – | – | – | – | – | – | – | – | – | – | – | –
CN[C@]1(c2ccccc2Cl)CCCCC1=O (single isomer, unassigned) [(S)-ketamine, ketamine] | 0.3 ± 0.013 µM | – | – | – | – | – | – | – | – | – | – | – | – | – | – | – | – | – | – | –
CNC1(c2ccccc2OC)CCCCC1=O (racemic) [Compound 4rac] | – | 292,000 ng*min/g | 135,000 ng*min/g | 46% | 19.9 min | 1900 ng/g | 45.9 min | 1650 ng·h/mL | 20.6 min | 958 ng/mL | 850 ng·h/mL | 42.6 min | 51% | did not have effects | 819 min | 1 µL/min/mg | 43.2 h | 1 µL/min/mg | 35 µM | –
CCNC1(c2cccc(OC)c2)CCCCC1=O (racemic) [Compound 2rac] | – | 279,000 ng*min/g | 11,800 ng*min/g | 4% | 16.1 min | 420 ng/g | 16.6 min | 1100 ng·h/mL | 17.9 min | 135 ng/mL | 62.8 ng·h/mL | 14 min | 6% | reduced time immobile; also recorded: induced antidepressant-like effects | 199 min | 3 µL/min/mg | 4.85 h | 6 µL/min/mg | – | –
CNC1(c2ccccc2F)CCCCC1=O (racemic) [Compound 35rac, 2-(2-Fluorophenyl)-2-(methylamino)cyclohexan-1-one] | – | 186,000 ng*min/g | 34,200 ng*min/g | 18% | 16.1 min | 1840 ng/g | 19.1 min | 1300 ng·h/mL | 15.1 min | 618 ng/mL | 363 ng·h/mL | 19.7 min | 28% | did not have effects | 148 min | 5 µL/min/mg | 2.85 h | 10 µL/min/mg | 1.82 µM | superior to 37rac; also recorded: reversed the pro-depressive effects

From patent US11344510B2, “Arylcyclohexylamine derivatives and their use in the treatment of psychiatric disorders” (Gilgamesh Pharmaceuticals, Inc., priority 2019, dated 2022)
